Where two headings read alike, the source gives them in different places.
Columns and labels:
Chlorella (HS26) [1] = tested on: Chlorella (HS26)
Method: Cultures of Chlorella (HS26) were inoculated at 0.3 g/L in glass column bioreactors at a volume of 700 mL of BG-11 culture media and maintained at a temperature of 27° C. The mixotrophic cultures received aeration at a rate of 1 Liter per minute, an initial batch of 30 g glucose/L, and were supplied 270 micromoles of light using LED lights (LumiGrow, Inc., Emeryville, Calif.). In a first treatment, the culture was supplied with an initial batch of 3 g/L NaNO3 (“Nitrate” treatment), and the culture pH was controlled at a set point of 6.5 by a pH auxostat feed containing 0.50% HCl. In a second treatment, the culture was supplied with an initial batch of 3 g/L NaNO3 (“Nitrates” treatment), and the culture pH was controlled at a set point of 7.5 by a pH auxostat feed containing 0.50% HCl. […] Samples were taken daily to measure the cell dry weight, nitrogen concentration, and total protein.

Chlorella cultures = details: 1 g N/L of NH4; mixotrophic, acetic acid as organic carbon source; FIG. 11
Description: The Chlorella cultures productivity using either ammonium (NH4) or nitrates (NO3) as the nitrogen source in mixotrophic culture conditions (i.e., supply of light, supply of acetic acid as the organic carbon source) were then compared. The cultures received NH4 at a concentration of 0.13 g N/L, 0.25 g N/L, 0.5 g N/L, or 1 g N/L for the ammonium treatments. The cultures received NO3 at a concentration of 0.25 g N/L or 1 g N/L for the nitrate treatments. Samples were taken to measure cell dry weight at 0, 39, 86, and 161.5 hours.

Chlorella (HS26) [2] = details: pH 7.0
Method: Cultures of Chlorella (HS26) were inoculated at 0.3 g/L in glass column bioreactors at a volume of 700 mL of BG-11 culture media and maintained at a temperature of 27° C. The mixotrophic cultures received aeration at a rate of 1 Liter per minute, an initial batch of 30 g glucose/L, and were supplied 270 micromoles of light using LED lights (LumiGrow, Inc., Emeryville, Calif.). In a first treatment, the culture was supplied with an initial batch of 3 g/L NaNO3 (“Nitrate” treatment), and the culture pH was controlled at a set point of 7.0 by a pH auxostat feed containing 0.75% HCl. […] Samples were taken daily to measure the cell dry weight, nitrogen concentration, and total protein.

Chlorella (HS26) [3] = details: for final day (day 4) cell dry weight: FIG. 16
Method: Cultures of Chlorella (HS26) were inoculated at 0.3 g/L in glass column bioreactors at a volume of 700 mL of BG-11 culture media and maintained at a temperature of 27° C. The mixotrophic cultures received an initial batch of 1 g/L NH4Cl, aeration at a rate of 1 Liter per minute, an initial batch of 40 g glucose/L, and were supplied 270 micromoles of light using LED lights (LumiGrow, Inc., Emeryville, Calif.). Treatments were conducted at culture medium pH values of 6.5, 7.0, 7.3, 7.5, 7.8, 8.0, and 8.5. The culture medium pH was controlled with a pH auxostat supplying a titrate of 0.5% NH4OH and 0.75% HCl at the designated set points. Samples were taken daily to measure the cell dry weight, nitrogen concentration, and total protein. Results are show in FIGS. 13-17.

Schizochytrium limacinum = details: pH 6.5
Description: The heterotrophic cultures received aeration at a rate of 1 Liter per minute, and an initial batch of 80 g glycerol/L. In a first treatment, the culture was supplied with an initial batch of 20 g/L monosodium glutamate (“Glutamate” treatment), and the culture pH was controlled at a set point of 6.5 by a pH auxostat feed containing 1% HCl. […] Samples were taken daily to measure the cell dry weight, nitrogen concentration, and total protein. Results are show in FIGS. 30-33.

Chlorella (HS26) [4] = details: for total protein content: FIG. 29; for growth (cell dry weight over time): FIG. 26
Method: Cultures of Chlorella (HS26) were inoculated at 0.3 g/L in glass column bioreactors at a volume of 700 mL of BG-11 culture media and maintained at a temperature of 27° C. The mixotrophic cultures received aeration at a rate of 1 Liter per minute, an initial batch of 30 g glucose/L, and were supplied 270 micromoles of light using LED lights (LumiGrow, Inc., Emeryville, Calif.). In a first treatment, the culture was supplied with an initial batch of 3 g/L NaNO3 (“Nitrate” treatment), and the culture pH was controlled at a set point of 7.0 by a pH auxostat feed containing 0.50% HCl. In a second treatment, the culture was supplied with an initial batch of 3 g/L NaNO3 (“Nitrates” treatment), and the culture pH was controlled at a set point of 8.0 by a pH auxostat feed containing 0.50% HCl. […] Samples were taken daily to measure the cell dry weight, nitrogen concentration, and total protein.

Chlorella (HS26) cells = assay: pH drift of cultures suspended in different nitrogen sources (Example 1); type: cell-based; details: after 24 hours, compared to a control; light, shaking 100 RPM; FIG. 10
Method: The Chlorella cultures were supplied with light, and shaking from a shaker table at 100 RPM. The pH drift of each culture was measured after 24 hours and compared to a control.

Row | Structure (SMILES) | growth (cell dry weight over time) (Chlorella (HS26) [1]; Ammonia pH 6.5 treatment, among Ammonia and Nitrate treatments at pH 6.5 and 7.5, FIG. 22) | total protein content (Chlorella (HS26) [1]; Ammonia treatments pH 6.5 and 7.5 versus Nitrate treatments, FIG. 25) | growth and productivity (cell dry weight) (Chlorella cultures) | growth (cell dry weight over time) (Chlorella (HS26) [2]; 1.0 g/L NH4Cl, 0.5% NH4OH feed, versus Nitrate treatment, FIG. 18) | increase in protein (Chlorella (HS26) [2]; compared to the Nitrate treatment, FIG. 21) [%] | total protein on the final day (day 4) (Chlorella (HS26) [3]; culture pH 6.5 to 8.5, particularly above 7.5, FIG. 17) | accumulated protein (total protein content) (Chlorella (HS26) [3]; culture pH above 7.5, FIG. 15) | final day (day 4) cell dry weight (Chlorella (HS26) [3]; culture pH above 7.5) | growth (cell dry weight over time) (Chlorella (HS26) [3]; culture pH above 7.5, initial 1 g/L NH4Cl, 0.5% NH4OH titrant, FIG. 13) | final day (day 4) cell dry weight (Chlorella (HS26) [3]; culture pH of 7.5 and below) | growth (cell dry weight over time) (Schizochytrium limacinum; 1.0 g/L NH4Cl, 10% NH4OH feed, heterotrophic, glycerol, FIG. 30) | increase in protein yield (Schizochytrium limacinum; over the Glutamate treatment, FIG. 33) [%] | total protein content (Chlorella (HS26) [4]; Ammonia culture grown at the higher pH (8.0)) | growth (cell dry weight over time) (Chlorella (HS26) [4]; Ammonia pH 7.0 treatment) | growth (cell dry weight over time) (Chlorella (HS26) [4]; Ammonia pH 8.0 treatment) | total protein content (Chlorella (HS26) [4]; Ammonia treatments pH 7.0 and 8.0 versus Nitrate treatments) | pH drift of culture (Chlorella (HS26) cells)
1 | N [Ammonia, ammonia] | greatest amount of growth | more protein than the Nitrate treatments | suffered | better growth than the Nitrate treatment | 15 | increased as the culture pH increased | increase in accumulated protein | decreased as the culture pH increased | impaired growth | substantially similar | higher resulting growth than the Glutamate treatment | 20 | highest resulting protein | highest resulting growth | impaired growth | more total protein than the Nitrate treatments | –
2 | O=[N+]([O-])[O-].[Na+] [sodium nitrate, reference compound] | – | – | – | – | – | – | – | – | – | – | – | – | – | – | – | – | increased in culture pH
3 | N.N.O=S(=O)(O)O [ammonium sulfate] | – | – | – | – | – | – | – | – | – | – | – | – | – | – | – | – | decreased in culture pH

Reference: patent US20200002665A1 (Heliae Development, LLC, priority 2016, published 2020)
